From US11098044B2, “Imidazopyridinyl compounds and use thereof for treatment of neurodegenerative disorders” (1ST Biotherapeutics, Inc., priority 2019, dated 2021)
pIC50: −log10 of the molar value.

Key:
Assay type in all cases: biochemical
LRRK2 G2019S = LRRK2 G2019S (Homo sapiens (Human), UniProt Q5S007, G2019S); assay: LRRK2 G2019S Kinase Assay (Adapta); settings: 100 μM ATP, LRRKtide substrate; read-out: LRRK2_G2019S IC50
Experimental: (§1) The LRRK2 and LRRK2 G2019S kinase assays were performed using the Adapta™ technology in ThermoFisher Scientific. This experiment was carried out according to the supplier's protocol. Briefly, assay conditions were as follows. The mixture of substrate (LRRKtide) and each kinase was prepared in 50 mM Tris pH 8.5, 0.01% BRIJ-35, 10 mM MgCl2, 1 mM EGTA, 0.02% NaN3. Assays were performed in the presence of 70 μM ATP and 100 μM ATP (KmATP) in LRRK2 and LRRK2 G2019S, respectively. The reaction was progressed at room temperature for 1 hour. Upon completion of kinase reaction, 5 μL of Detection Mix was added and after 60 min incubation time, the emission ratio of 665/615 nm was calculated.

[1] = molecular target: c-Abl (His-tagged recombinant human ABL1) (Homo sapiens (Human), UniProt P00519); assay: c-abl Kinase Assay (ADP-Glo); settings: ATP (25 μM), Abltide substrate
Sequence of c-Abl (His-tagged recombinant human ABL1) (P00519 whole entry): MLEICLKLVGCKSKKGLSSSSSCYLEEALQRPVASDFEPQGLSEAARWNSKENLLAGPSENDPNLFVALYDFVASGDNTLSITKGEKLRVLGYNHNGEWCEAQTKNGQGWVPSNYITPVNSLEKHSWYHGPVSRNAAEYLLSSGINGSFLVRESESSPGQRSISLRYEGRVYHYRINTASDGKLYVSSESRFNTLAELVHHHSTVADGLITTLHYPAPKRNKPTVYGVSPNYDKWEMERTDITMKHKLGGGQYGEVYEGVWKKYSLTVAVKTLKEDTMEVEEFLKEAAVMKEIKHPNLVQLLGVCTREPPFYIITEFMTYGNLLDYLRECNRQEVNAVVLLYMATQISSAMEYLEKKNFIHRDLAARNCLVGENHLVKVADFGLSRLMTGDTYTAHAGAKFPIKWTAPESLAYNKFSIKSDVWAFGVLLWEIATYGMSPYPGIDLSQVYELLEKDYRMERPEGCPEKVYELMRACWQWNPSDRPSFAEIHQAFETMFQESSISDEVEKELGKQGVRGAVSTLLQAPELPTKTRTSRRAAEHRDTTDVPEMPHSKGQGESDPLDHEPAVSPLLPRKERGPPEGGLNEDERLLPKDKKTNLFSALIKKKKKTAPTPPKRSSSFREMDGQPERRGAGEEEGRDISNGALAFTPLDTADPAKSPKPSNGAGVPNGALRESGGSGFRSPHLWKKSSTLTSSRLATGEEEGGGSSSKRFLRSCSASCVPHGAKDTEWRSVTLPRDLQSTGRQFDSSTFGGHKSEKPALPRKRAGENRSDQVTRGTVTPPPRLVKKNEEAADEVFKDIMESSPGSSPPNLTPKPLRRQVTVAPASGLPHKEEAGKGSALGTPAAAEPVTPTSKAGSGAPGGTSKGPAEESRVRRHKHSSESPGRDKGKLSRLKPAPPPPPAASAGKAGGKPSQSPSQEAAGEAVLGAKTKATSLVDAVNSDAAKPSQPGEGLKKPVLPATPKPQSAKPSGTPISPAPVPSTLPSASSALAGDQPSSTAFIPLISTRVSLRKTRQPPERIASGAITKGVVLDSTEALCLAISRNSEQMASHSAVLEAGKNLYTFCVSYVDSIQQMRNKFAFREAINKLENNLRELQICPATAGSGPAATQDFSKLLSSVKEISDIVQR
Experimental: ADP-Glo assay kit was purchased from Promega. Magnesium chloride (MgCl2), bovine serum albumin (BSA), ethylene glycol-bis(p-aminoethyl ether)-N,N,N′,N′-tetraacetic acid (EGTA), triton X-100, 1,4-dithiothreitol (DTT) and dimethyl sulfoxide (DMSO) were purchased from Sigma-Aldrich. HEPES buffer was purchased from Gibco. ABL1 kinase and Abltide were purchased from Signalchem.
c-Abl kinase activity was measured by Promega's ADP-Glo™ Assay. In this assay, His-tagged recombinant human ABL1 (0.25 ng/μl) is incubated with 5 μL of compounds (0.5% DMSO), 5 μL of Abltide (0.01 μg/μl) and 5 μL of ATP (25 μM) in buffer (50 mM HEPES, 7.5; 10 mM MgCl2; 1 mM EGTA; 0.05% BSA; 0.01% Triton X-100; 2 mM DTT). The assay was started by incubating the reaction mixture in a 96-well plate at 30° C. for 30-min. After the incubation, 25 μL ADP-Glo reagent was added and the reaction was incubated at room temperature for 40-min to stop the reaction and degrade residual ATP. The ADP product was then converted to ATP by adding 50 μL per well of detection reagent. Luminescence was detected after 30-min room temperature incubation with the Molecular device I3X plate reader. The IC50 values were calculated from a series of percent inhibition values determined at a range of inhibitor concentration using software routines as implemented in the GraphPad Prism 7 software and Sigma Plot 13.0.

LRRK2 (WT) = LRRK2 (WT) (Homo sapiens (Human), UniProt Q5S007); assay: LRRK2 Kinase Assay (Adapta); settings: 70 μM ATP, LRRKtide substrate
Sequence of LRRK2 (WT) (Q5S007 whole entry): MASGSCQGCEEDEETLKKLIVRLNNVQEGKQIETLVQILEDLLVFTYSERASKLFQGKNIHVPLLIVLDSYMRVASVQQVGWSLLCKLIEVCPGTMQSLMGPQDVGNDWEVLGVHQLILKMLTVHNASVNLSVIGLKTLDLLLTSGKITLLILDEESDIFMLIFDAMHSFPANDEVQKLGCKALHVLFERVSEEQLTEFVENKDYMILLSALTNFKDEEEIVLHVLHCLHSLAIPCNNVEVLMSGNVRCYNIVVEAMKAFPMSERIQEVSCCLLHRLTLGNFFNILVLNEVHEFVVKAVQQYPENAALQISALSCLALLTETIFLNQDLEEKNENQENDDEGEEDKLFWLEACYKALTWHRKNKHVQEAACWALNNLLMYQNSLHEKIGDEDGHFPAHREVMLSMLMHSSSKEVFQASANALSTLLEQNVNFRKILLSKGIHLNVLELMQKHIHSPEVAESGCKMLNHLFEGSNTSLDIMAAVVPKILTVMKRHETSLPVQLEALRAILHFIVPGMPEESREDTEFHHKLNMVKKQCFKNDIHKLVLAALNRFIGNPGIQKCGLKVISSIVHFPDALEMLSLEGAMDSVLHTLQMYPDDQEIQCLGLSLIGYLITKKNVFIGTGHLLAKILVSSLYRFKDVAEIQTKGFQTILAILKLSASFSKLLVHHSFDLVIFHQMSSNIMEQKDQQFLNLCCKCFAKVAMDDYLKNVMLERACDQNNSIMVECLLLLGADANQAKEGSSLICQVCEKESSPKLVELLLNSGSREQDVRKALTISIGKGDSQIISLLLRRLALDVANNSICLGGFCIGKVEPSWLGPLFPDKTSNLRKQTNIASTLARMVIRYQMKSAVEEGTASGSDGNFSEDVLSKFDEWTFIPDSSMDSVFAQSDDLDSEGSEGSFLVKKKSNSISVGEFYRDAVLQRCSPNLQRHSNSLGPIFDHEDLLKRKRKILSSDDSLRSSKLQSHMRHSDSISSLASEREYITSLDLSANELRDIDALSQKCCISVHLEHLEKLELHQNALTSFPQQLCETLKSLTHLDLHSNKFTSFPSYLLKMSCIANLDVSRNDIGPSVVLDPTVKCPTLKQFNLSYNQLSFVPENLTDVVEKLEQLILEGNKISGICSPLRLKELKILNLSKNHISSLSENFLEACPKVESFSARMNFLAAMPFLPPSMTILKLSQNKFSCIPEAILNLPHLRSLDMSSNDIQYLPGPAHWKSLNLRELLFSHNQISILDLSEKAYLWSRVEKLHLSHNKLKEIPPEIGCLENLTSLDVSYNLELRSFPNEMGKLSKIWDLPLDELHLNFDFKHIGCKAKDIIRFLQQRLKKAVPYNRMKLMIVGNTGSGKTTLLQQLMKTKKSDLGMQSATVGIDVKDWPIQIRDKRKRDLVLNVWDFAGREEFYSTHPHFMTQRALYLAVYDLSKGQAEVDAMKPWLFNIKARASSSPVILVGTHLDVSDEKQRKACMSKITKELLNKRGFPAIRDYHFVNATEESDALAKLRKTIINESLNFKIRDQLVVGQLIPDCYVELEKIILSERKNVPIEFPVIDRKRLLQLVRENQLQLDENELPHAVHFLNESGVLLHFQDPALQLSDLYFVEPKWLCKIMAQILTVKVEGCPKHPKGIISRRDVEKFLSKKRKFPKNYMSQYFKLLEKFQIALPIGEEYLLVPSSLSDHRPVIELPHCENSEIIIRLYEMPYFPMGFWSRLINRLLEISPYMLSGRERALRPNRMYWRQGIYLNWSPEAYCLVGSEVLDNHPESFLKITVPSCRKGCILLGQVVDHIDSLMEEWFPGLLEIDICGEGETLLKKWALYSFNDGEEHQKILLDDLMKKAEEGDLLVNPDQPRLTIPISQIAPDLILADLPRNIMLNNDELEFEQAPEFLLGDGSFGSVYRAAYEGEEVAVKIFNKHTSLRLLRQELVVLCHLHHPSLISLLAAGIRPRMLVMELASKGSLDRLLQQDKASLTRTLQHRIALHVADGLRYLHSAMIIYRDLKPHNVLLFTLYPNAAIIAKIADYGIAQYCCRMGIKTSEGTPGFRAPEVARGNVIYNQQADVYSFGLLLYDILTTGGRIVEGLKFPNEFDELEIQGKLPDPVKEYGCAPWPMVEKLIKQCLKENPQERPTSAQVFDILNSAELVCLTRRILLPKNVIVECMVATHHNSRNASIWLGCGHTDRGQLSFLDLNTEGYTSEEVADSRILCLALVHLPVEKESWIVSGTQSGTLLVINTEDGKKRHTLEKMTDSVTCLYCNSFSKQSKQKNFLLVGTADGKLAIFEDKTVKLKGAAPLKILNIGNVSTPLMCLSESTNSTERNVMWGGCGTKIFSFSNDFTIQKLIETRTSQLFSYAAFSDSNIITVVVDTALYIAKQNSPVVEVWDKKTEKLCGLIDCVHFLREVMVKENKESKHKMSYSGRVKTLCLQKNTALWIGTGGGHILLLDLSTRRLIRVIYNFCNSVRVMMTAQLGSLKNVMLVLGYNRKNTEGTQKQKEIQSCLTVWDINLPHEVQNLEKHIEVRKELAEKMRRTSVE
Experimental: as §1

Sequence of LRRK2 G2019S (Q5S007 whole entry G2019S): as the sequence (Q5S007 whole entry) above, with G2019S counted along it

pIC50 (LRRK2 G2019S) | pIC50 [1] | pIC50 (LRRK2 (WT)) | Compound
6.00 to 7.00 | 7.00 to 8.00 | 6.00 to 7.00 | Nc1ccc(-c2ccc3nc(NC(=O)[C@@H]4C[C@@H]4F)cn3c2)cn1 [Example 55, (1S,2S)—N-(6-(6-aminopyridin-3-yl)imidazo[1,2-a]pyridin-2-yl)-2-fluorocyclopropane-1-carboxamide]
< 6.00 | 7.00 to 8.00 | < 6.00 | O=C(Nc1cn2cc(-c3cccc(F)c3-c3ccco3)ccc2n1)[C@@H]1C[C@@H]1F [Example 65, (1S,2S)-2-fluoro-N-(6-(3-fluoro-2-(furan-2-yl)phenyl)imidazo[1,2-a]pyridin-2-yl)cyclopropanecarboxamide]
> 8.00 | > 8.00 | > 8.00 | Cc1ccc2[nH]ccc2c1-c1ccc2nc(NC(=O)[C@@H]3C[C@@H]3F)cn2c1 [Example 15, (1S,2S)-2-fluoro-N-(6-(5-methyl-1H-indol-4-yl)imidazo[1,2-a]pyridin-2-yl)cyclopropane-1-carboxamide]
6.00 to 7.00 | 7.00 to 8.00 | < 6.00 | Cc1cccc(F)c1-c1ccc2nc(NC(=O)[C@@H]3C[C@@H]3F)c(Cl)n2c1 [Example 4, (1S,2S)—N-(3-chloro-6-(2-fluoro-6-methylphenyl)imidazo[1,2-a]pyridin-2-yl)-2-fluorocyclopropane-1-carboxamide]
6.00 to 7.00 | 7.00 to 8.00 | 6.00 to 7.00 | Cc1c(F)cccc1-c1ccc2nc(NC(=O)[C@@H]3C[C@@H]3F)c(C)n2c1 [Example 8, (1S,2S)-2-fluoro-N-(6-(3-fluoro-2-methylphenyl)-3-methylimidazo[1,2-a]pyridin-2-yl)cyclopropane-1-carboxamide]
6.00 to 7.00 | > 8.00 | 6.00 to 7.00 | Cc1cccc(-c2ccc3nc(NC(=O)[C@@H]4C[C@@H]4F)cn3c2)c1C [Example 22, (1S,2S)—N-(6-(2,3-dimethylphenyl)imidazo[1,2-a]pyridin-2-yl)-2-fluorocyclopropane-1-carboxamide]
7.00 to 8.00 | > 8.00 | 6.00 to 7.00 | Cc1ccc(-c2cc[nH]c2)cc1-c1ccc2nc(NC(=O)[C@@H]3C[C@@H]3F)cn2c1 [Example 40, (1S,2S)-2-fluoro-N-(6-(2-methyl-5-(1H-pyrrol-3-yl)phenyl)imidazo[1,2-a]pyridin-2-yl)cyclopropane-1-carboxamide]
6.00 to 7.00 | 7.00 to 8.00 | 6.00 to 7.00 | Cc1c[nH]nc1-c1ccc2nc(NC(=O)[C@@H]3C[C@@H]3F)cn2c1 [Example 19, (1S,2S)-2-fluoro-N-(6-(4-methyl-1H-pyrazol-3-yl)imidazo[1,2-a]pyridin-2-yl)cyclopropane-1-carboxamide]
7.00 to 8.00 | 7.00 to 8.00 | 6.00 to 7.00 | Cc1ccnc(F)c1-c1ccc2nc(NC(=O)[C@@H]3C[C@@H]3F)cn2c1 [Example 47, (1S,2S)-2-fluoro-N-(6-(2-fluoro-4-methylpyridin-3-yl)imidazo[1,2-a]pyridin-2-yl)cyclopropane-1-carboxamide]
7.00 to 8.00 | > 8.00 | 6.00 to 7.00 | Cc1cccc(F)c1-c1ccc2nc(NC(=O)[C@@H]3C[C@@H]3F)cn2c1 [Example 2, (1S,2S)-2-fluoro-N-(6-(2-fluoro-6-methylphenyl)imidazo[1,2-a]pyridin-2-yl)cyclopropane-1-carboxamide]
6.00 to 7.00 | 6.00 to 7.00 | < 6.00 | N#Cc1ccncc1-c1ccc2nc(NC(=O)[C@@H]3C[C@@H]3F)cn2c1 [Example 36, (1S,2S)—N-(6-(4-cyanopyridin-3-yl)imidazo[1,2-a]pyridin-2-yl)-2-fluorocyclopropane-1-carboxamide]
< 6.00 | 7.00 to 8.00 | < 6.00 | CC(=O)c1c(F)cccc1-c1ccc2nc(NC(=O)[C@@H]3C[C@@H]3F)cn2c1 [Example 68, (1S,2S)—N-(6-(2-acetyl-3-fluorophenyl)imidazo[1,2-a]pyridin-2-yl)-2-fluorocyclopropanecarboxamide]
6.00 to 7.00 | > 8.00 | 6.00 to 7.00 | Cc1c(F)cncc1-c1ccc2nc(NC(=O)[C@@H]3C[C@@H]3F)cn2c1 [Example 14, (1S,2S)-2-fluoro-N-(6-(5-fluoro-4-methylpyridin-3-yl)imidazo[1,2-a]pyridin-2-yl)cyclopropane-1-carboxamide]
7.00 to 8.00 | 7.00 to 8.00 | 7.00 to 8.00 | Cc1c(F)cccc1-c1ccc2nc(NC(=O)C3CCC3)cn2c1 [Example 76, N-(6-(3-fluoro-2-methylphenyl)imidazo[1,2-a]pyridin-2-yl)cyclobutanecarboxamide]
7.00 to 8.00 | > 8.00 | 7.00 to 8.00 | Cc1ccc(F)cc1-c1ccc2nc(NC(=O)[C@@H]3C[C@@H]3F)cn2c1 [Example 11, (1S,2S)-2-fluoro-N-(6-(5-fluoro-2-methylphenyl)imidazo[1,2-a]pyridin-2-yl)cyclopropane-1-carboxamide]
7.00 to 8.00 | > 8.00 | 6.00 to 7.00 | Cc1cccc(Cl)c1-c1ccc2nc(NC(=O)[C@@H]3C[C@@H]3F)cn2c1 [Example 52, (1S,2S)—N-(6-(2-chloro-6-methylphenyl)imidazo[1,2-a]pyridin-2-yl)-2-fluorocyclopropane-1-carboxamide]
6.00 to 7.00 | > 8.00 | 6.00 to 7.00 | Cc1c(F)ccc(-c2ccc3nc(NC(=O)[C@@H]4C[C@@H]4F)cn3c2)c1C [Example 37, (1S,2S)-2-fluoro-N-(6-(4-fluoro-2,3-dimethylphenyl)imidazo[1,2-a]pyridin-2-yl)cyclopropane-1-carboxamide]
7.00 to 8.00 | > 8.00 | 7.00 to 8.00 | Cc1ccsc1-c1ccc2nc(NC(=O)[C@@H]3C[C@@H]3F)cn2c1 [Example 41, (1S,2S)-2-fluoro-N-(6-(3-methylthiophen-2-yl)imidazo[1,2-a]pyridin-2-yl)cyclopropane-1-carboxamide]
6.00 to 7.00 | > 8.00 | 6.00 to 7.00 | Cc1ccc(C)c(-c2ccc3nc(NC(=O)[C@@H]4C[C@@H]4F)cn3c2)c1 [Example 34, (1S,2S)—N-(6-(2,5-dimethylphenyl)imidazo[1,2-a]pyridin-2-yl)-2-fluorocyclopropane-1-carboxamide]
< 6.00 | 6.00 to 7.00 | 6.00 to 7.00 | O=C(Nc1cn2cc(-c3cccc(F)c3COCCO)ccc2n1)[C@@H]1C[C@@H]1F [Example 83, (1S,2S)-2-fluoro-N-(6-(3-fluoro-2-((2-hydroxyethoxy)methyl)phenyl)imidazo[1,2-a]pyridin-2-yl)cyclopropanecarboxamide]
7.00 to 8.00 | > 8.00 | 7.00 to 8.00 | Cc1c(F)cccc1-c1ccc2nc(NC(=O)C3CC3)cn2c1 [Example 70, N-(6-(3-fluoro-2-methylphenyl)imidazo[1,2-a]pyridin-2-yl)cyclopropanecarboxamide]
7.00 to 8.00 | > 8.00 | > 8.00 | Cc1c(O)cccc1-c1ccc2nc(NC(=O)[C@@H]3C[C@@H]3F)cn2c1 [Example 20, (1S,2S)-2-fluoro-N-(6-(3-hydroxy-2-methylphenyl)imidazo[1,2-a]pyridin-2-yl)cyclopropane-1-carboxamide]
6.00 to 7.00 | > 8.00 | 6.00 to 7.00 | Cc1ccc(-c2cc[nH]n2)cc1-c1ccc2nc(NC(=O)[C@@H]3C[C@@H]3F)cn2c1 [Example 28, (1S,2S)-2-fluoro-N-(6-(2-methyl-5-(1H-pyrazol-3-yl)phenyl)imidazo[1,2-a]pyridin-2-yl)cyclopropane-1-carboxamide]
6.00 to 7.00 | 7.00 to 8.00 | < 6.00 | COCCOCc1c(F)cccc1-c1ccc2nc(NC(=O)[C@@H]3C[C@@H]3F)cn2c1 [Example 82, (1S,2S)-2-fluoro-N-(6-(3-fluoro-2-((2-methoxyethoxy)methyl)phenyl)imidazo[1,2-a]pyridin-2-yl)cyclopropanecarboxamide]
7.00 to 8.00 | > 8.00 | 7.00 to 8.00 | Cc1c(F)cc(N)cc1-c1ccc2nc(NC(=O)[C@@H]3C[C@@H]3F)cn2c1 [Example 50, (1S,2S)—N-(6-(5-amino-3-fluoro-2-methylphenyl)imidazo[1,2-a]pyridin-2-yl)-2-fluorocyclopropane-1-carboxamide]
